# Measurements from patent US11279733B2, “Peptide antibiotics” (priority 2017, dated 2022).
# Where two headings read alike, the source gives them in different places. Positions of bridges follow the written chain, without caps; N, C: chain ends. Non-standard residues stand in square brackets, D forms with d. Residues, ends and D or L forms follow the SMILES beside them. ξ: configuration not given here. *: point of attachment. Decanoyl(3R-OH) = CCCCCCC[C@@H](O)CC(=O)*; dPhe(4-NH2) = Nc1ccc(C[C@@H](N)C(=O)O)cc1; Decanoyl(3ξ-OH) = CCCCCCCC(O)CC(=O)*; dIgl = N[C@@H](C(=O)O)C1Cc2ccccc2C1; dDab = NCC[C@@H](N)C(=O)O; Octanoyl = CCCCCCCC(=O)*; dDap = NC[C@@H](N)C(=O)O; Dab = NCC[C@H](N)C(=O)O
# Tests used:
# in vitro = settings: human
# Method: Cytotoxicity of the synthesised peptides was evaluated by comparison with commercially available colistin (polymyxin E), polymyxin B (Sigma chemical Co., St. Louis, Mo., U.S.A.) and synthetic octapeptin C4 by conducting lactate dehydrogenase (LDH) assay. CC50 values calculated based on curve fitting of dose dependent inhibition of cell growth represented the cytotoxicity of the peptide. Human kidney 2 (HK2) cells were seeded as 2000 cells per well in a 384 well cell culture plate in a final volume of 20 μL in DMEM/F12 medium (Invitrogen #11330057), in which 10% of FBS was added. Cells were incubated for 24 hours at 37° C., 5% CO2 to allow cells to attach to the plates. Similar conditions were employed for HEK293 and HepG2 cytotoxicity assays.
# Cytotoxicity to HEK293 and HepG2 cells was determined using the resazurin assay (McMillian, M. K.; Li, L.; Parker, J. B.; Patel, L.; Zhong, Z.; Gunnett, J. W.; Powers, W. J.; Johnson, M. D. An improved resazurin-based cytotoxicity assay for hepatic cells; Cell Biol. Toxicol. 2002, 18, 157-173; O'Brien, J.; Wilson, I.; Orton, T.; Pognan, F. Investigation of the Alamar Blue (resazurin) fluorescent dye for the assessment of mammalian cell cytotoxicity. Eur. J. Biochem. 2000, 267, 5421-5426). In brief, HEK293 and HepG2 cells were seeded at 4000 cells/well in black-wall, clear-bottom 384-well plates (Corning, Australia) and incubated for 24 h at 37° C., 5% CO2. Compounds were then added into each well. After 24 h incubation, 5 μM resazurin was added per well and incubated at 37° C. for 2 h. Fluorescence intensity was then read using a Polarstar Omega with excitation/emission 560/590. The data was then analyzed using GraphPad Prism 6 software. CC50 values were determined using GraphPad Prism 6 software (Inc. La Jolla, Calif.).
# A. baumannii GN_093 PmxR = settings: GN 093 PmxR
# Method in brief: (§1)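 Mid-log cultures grown in Mueller Hinton broth at 37° C were tested by 2-fold broth microdilution at 5×10^5 CFU/mL final. Compounds were dissolved in water and tested over a final range of 32 to 0.015 μg/mL.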
# [1] = system: K. pneumoniae ATCC 700603, MDR; settings: ATCC 700603
# Method in brief: as §1
# [2] = system: K. pneumoniae GN_102 PmxR; settings: GN 102 PmxR
# Method in brief: as §1
# [3] = system: K. pneumoniae ATCC BAA-2146, NDM-1 pos; settings: ATCC BAA-2146
# Method in brief: as §1
# K. pneumoniae ATCC 13883 = settings: ATCC 13883
# Method in brief: as §1
# [4] = system: S. aureus ATCC 25923, MSSA; settings: ATCC 25923
# Method in brief: as §1
# [5] = system: K. pneumoniae GN_106, PmxR; settings: GN 106, PmxR
# Method in brief: as §1
# [6] = system: P. aeruginosa GN_043, PmxR
# Method in brief: as §1
# E. coli ATCC 25922 = settings: ATCC 25922
# Method in brief: as §1
# P. aeruginosa ATCC 27853 = settings: ATCC 27853
# Method in brief: as §1
# A. baumannii ATCC 19606 = settings: ATCC 19606
# Method in brief: as §1
# [7] = system: P. aeruginosa GN_105, PmxR; settings: GN 105, PmxR
# Method in brief: as §1
Structure (SMILES),CC50 at 24 h (in vitro) [µM],MIC A. baumannii GN_093 PmxR (A. baumannii GN_093 PmxR) [µg/mL],MIC K. pneumoniae GN_102 PmxR [2] [µg/mL],"MIC K. pneumoniae GN_106, PmxR [5] [µg/mL]","MIC P. aeruginosa GN_105, PmxR [7] [µg/mL]","MIC K. pneumoniae ATCC 700603, MDR [1] [µg/mL]","MIC K. pneumoniae ATCC BAA-2146, NDM-1 pos [3] [µg/mL]",MIC K. pneumoniae ATCC 13883 (K. pneumoniae ATCC 13883) [µg/mL],"MIC S. aureus ATCC 25923, MSSA [4] [µg/mL]",MIC E. coli ATCC 25922 (E. coli ATCC 25922) [µg/mL],MIC P. aeruginosa ATCC 27853 (P. aeruginosa ATCC 27853) [µg/mL],MIC A. baumannii ATCC 19606 (A. baumannii ATCC 19606) [µg/mL],further results
"CCCCCCC[C@@H](O)CC(=O)N[C@H](CCCCN)C(=O)N[C@H]1CCNC(=O)[C@H](CC(C)C)NC(=O)[C@H](CCN)NC(=O)[C@H](CCN)NC(=O)[C@H](CC(C)C)NC(=O)[C@@H](Cc2ccccc2)NC(=O)[C@H](CCN)NC1=O [compound 5381, 3(R)OH-nC9CO-D-Lys-cyc[L-Dab-L-Dab-D-Phe-L-Leu-L-Dab-L-Dab-L-Leu]] ({Decanoyl(3R-OH)}-[dK][Dab][Dab][dF]L[Dab][Dab]L; lactam 2-C)",> 300,8,4,4,4,–,–,–,–,–,–,–,"MIC, K. pneumoniae ATCC 700603, MDR [1]: 4 µg/mL; MIC, K. pneumoniae ATCC BAA-2146, NDM-1 pos [3]: 8 µg/mL; MIC, K. pneumoniae ATCC 13883 (K. pneumoniae ATCC 13883): 8 µg/mL; MIC, S. aureus ATCC 25923, MSSA [4]: >32 µg/mL; MIC P. aeruginosa GN_043, PmxR ([6]; Table 6, polymyxin-resistant): 2 µg/mL; MIC, E. coli ATCC 25922 (E. coli ATCC 25922): 8 µg/mL; MIC, P. aeruginosa ATCC 27853 (P. aeruginosa ATCC 27853): 4 µg/mL; MIC, A. baumannii ATCC 19606 (A. baumannii ATCC 19606): 16 µg/mL"
"CCCCCCC[C@@H](O)CC(=O)N[C@H](Cc1ccc(N)cc1)C(=O)N[C@H]1CCNC(=O)[C@H](CC(C)C)NC(=O)[C@H](CCN)NC(=O)[C@H](CCN)NC(=O)[C@H](Cc2ccccc2)NC(=O)[C@@H](CC(C)C)NC(=O)[C@H](CCN)NC1=O [compound 6429, 3(R)OH-nC9CO-D-4NH2Phe-cyc[L-Dab-L-Dab-D-Leu-L-Phe-L-Dab-L-Dab-L-Leu]] ({Decanoyl(3R-OH)}-[dPhe(4-NH2)][Dab][Dab][dL]F[Dab][Dab]L; lactam 2-C)",> 300,>32,8,8,32,8,16,16,>32,16,32,32,"MIC P. aeruginosa GN_043, PmxR ([6]; P. aeruginosa GN_043, PmxR): 16 µg/mL"
"CCCCCCC[C@@H](O)CC(=O)N[C@H](CN)C(=O)N[C@H]1CCNC(=O)[C@H](Cc2c[nH]c3ccccc23)NC(=O)[C@H](CCCNC(=N)N)NC(=O)[C@H](CCCCN)NC(=O)[C@H](CC(C)C)NC(=O)[C@@H](C2Cc3ccccc3C2)NC(=O)[C@H](CCN)NC1=O [compound 8896, 3(R)OH-nC9CO-D-Dap-cyc[L-Dab-L-Dab-D-indanylgly-L-Leu-L-Lys-L-Arg-L-Trp]] ({Decanoyl(3R-OH)}-[dDap][Dab][Dab][dIgl]LKRW; lactam 2-C)",102,16,16,4,2,2,2,8,2,2,4,8,"MIC P. aeruginosa GN_043, PmxR ([6]; polymyxin-resistant): 4 µg/mL"
"CCCCCCC[C@@H](O)CC(=O)N[C@H](CCN)C(=O)N[C@H]1CCNC(=O)[C@H](Cc2c[nH]c3ccccc23)NC(=O)[C@H](CCN)NC(=O)[C@H](CCN)NC(=O)[C@H](CC(C)C)NC(=O)[C@@H](Cc2c[nH]c3ccccc23)NC(=O)[C@H](CCN)NC1=O [compound 8127, 3(R)OH-nC9CO-D-Dab-cyc[L-Dab-L-Dab-L-Dab-D-Trp-L-Leu-L-Dab-L-Dab-L-Trp]] ({Decanoyl(3R-OH)}-[dDab][Dab][Dab][dW]L[Dab][Dab]W; lactam 2-C)",63,32,16,4,2,4,4,16,4,2,2,16,"MIC P. aeruginosa GN_043, PmxR ([6]; polymyxin-resistant): 2 µg/mL"
"CCCCCCCC(=O)N[C@H](CN)C(=O)N[C@H]1CCNC(=O)[C@H](CC(C)C)NC(=O)[C@H](CCN)NC(=O)[C@H](CCN)NC(=O)[C@H](CC(C)C)NC(=O)[C@@H](Cc2ccccc2)NC(=O)[C@H](CCN)NC1=O [compound 8976, nC7CO-D-Dap-cyc[L-Dab-L-Dab-D-Phe-L-Leu-L-Dab-L-Dab-L-Leu]] (Octanoyl-[dDap][Dab][Dab][dF]L[Dab][Dab]L; lactam 2-C)",> 300,8,16,16,2,–,–,–,–,–,–,–,"MIC, K. pneumoniae ATCC 700603, MDR [1]: 8 µg/mL; MIC, K. pneumoniae ATCC BAA-2146, NDM-1 pos [3]: 8 µg/mL; MIC, K. pneumoniae ATCC 13883 (K. pneumoniae ATCC 13883): 8 µg/mL; MIC, S. aureus ATCC 25923, MSSA [4]: >32 µg/mL; MIC P. aeruginosa GN_043, PmxR ([6]; Table 6, polymyxin-resistant): 2 µg/mL; MIC, E. coli ATCC 25922 (E. coli ATCC 25922): 4 µg/mL; MIC, P. aeruginosa ATCC 27853 (P. aeruginosa ATCC 27853): 2 µg/mL; MIC, A. baumannii ATCC 19606 (A. baumannii ATCC 19606): >32 µg/mL"
"CCCCCCCC(O)CC(=O)N[C@H](CCN)C(=O)N[C@H]1CCNC(=O)[C@H](CC(C)C)NC(=O)[C@H](CCN)NC(=O)[C@H](CCN)NC(=O)[C@H](CC(C)C)NC(=O)[C@@H](Cc2ccccc2)NC(=O)[C@H](CCN)NC1=O (stereo partly drawn) [compound 5013, 3OH-nC9CO-D-Dab-cyc[L-Dab-L-Dab-D-Phe-L-Leu-L-Dab-L-Dab-L-Leu]] ({Decanoyl(3ξ-OH)}-[dDab][Dab][Dab][dF]L[Dab][Dab]L; lactam 2-C)",> 300,8,4,16,2,8,16,4,16,8,2,16,"MIC P. aeruginosa GN_043, PmxR [6]: 2 µg/mL"
"CCCCCCC[C@@H](O)CC(=O)N[C@H](CCN)C(=O)N[C@H]1CCCCNC(=O)[C@H](CC(C)C)NC(=O)[C@H](CCN)NC(=O)[C@H](CCN)NC(=O)[C@H](CC(C)C)NC(=O)[C@@H](Cc2ccccc2)NC(=O)[C@H](CCN)NC1=O [compound 5382, 3(R)OH-nC9CO-D-Dab-cyc[L-Lys-L-Dab-D-Phe-L-Leu-L-Dab-L-Dab-L-Leu]] ({Decanoyl(3R-OH)}-[dDab]K[Dab][dF]L[Dab][Dab]L; lactam 2-C)",> 300,>32,>32,>32,2,8,8,8,32,4,4,32,"MIC P. aeruginosa GN_043, PmxR ([6]; P. aeruginosa GN_043, PmxR): 2 µg/mL"
